# Measurements from article PMC9599613 (Biomolecules, 2022).
# How the values were obtained:
# [1] = ABTS free radical scavenging assay
# Description: The antioxidant potentials of isolated phytosteroids 1 and 2 were also determined using the ABTS (2,2′-azino-bis(3-ethylbenzothiazoline-6-sulfonic acid)) standard method. […] This created free radicals within the sample. Afterward, the addition of 50% methanol and the ABTS radical cation solution were adjusted to pH 7.4 by dilution with the phosphate buffer (pH 7.4). […] The positive control was ascorbic acid, and the assay was repeated in triplicate. The percent radical scavenging potential of the test compounds was calculated using the standard reported formula.
# [2] = DPPH free radical scavenging assay
# Description: The antioxidant potentials of isolated compounds (phytosteroids 1 and 2) were determined following the DPPH standard assay. Initially, DPPH (24 mg) was dissolved in methanol (100 mL). Stock solutions of the test compounds were prepared in different dilutions (62.50–1000 μg/mL). From each dilution, 1 mL was mixed with 1 mL of the DPPH solution. The solution mixtures were incubated at room temperature for 0.5 h. Afterward, absorbance was recorded at 517 nm with a UV-visible spectrophotometer. Ascorbic acid was the standard drug, whereas the DPPH solution without the compound was negative control. The percent radical scavenging potential of the test compounds was calculated using the following formula: % DPPH activity=X−X1/X×100 where X = absorbance of the control, and X1 = absorbance of the test compound.
# [3] = target: T1, acetylcholinesterase (AChE) (Electrophorus electricus, UniProt O42275); assay: Anticholinesterase assay (Ellman's), AChE inhibition; assay type: biochemical
# T1 construct: acetylcholinesterase (AChE, obtained from Electrophorus electricus); from tissue
# T1 sequence (O42275 24-633): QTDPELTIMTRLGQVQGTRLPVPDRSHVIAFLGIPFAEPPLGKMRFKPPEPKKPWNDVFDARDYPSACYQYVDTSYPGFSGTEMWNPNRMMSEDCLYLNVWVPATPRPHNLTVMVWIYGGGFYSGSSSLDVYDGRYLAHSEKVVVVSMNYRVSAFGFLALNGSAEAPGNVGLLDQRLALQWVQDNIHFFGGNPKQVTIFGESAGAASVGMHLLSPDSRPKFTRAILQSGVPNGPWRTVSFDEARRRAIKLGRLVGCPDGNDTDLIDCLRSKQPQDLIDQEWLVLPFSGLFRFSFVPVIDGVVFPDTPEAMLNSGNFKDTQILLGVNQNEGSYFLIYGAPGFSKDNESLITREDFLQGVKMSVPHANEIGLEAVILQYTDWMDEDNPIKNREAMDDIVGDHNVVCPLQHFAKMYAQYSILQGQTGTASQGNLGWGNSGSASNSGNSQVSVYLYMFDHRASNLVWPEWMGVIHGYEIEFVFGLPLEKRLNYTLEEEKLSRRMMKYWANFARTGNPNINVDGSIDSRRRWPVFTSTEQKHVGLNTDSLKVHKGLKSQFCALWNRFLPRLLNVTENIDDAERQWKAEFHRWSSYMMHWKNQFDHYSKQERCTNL
# Description: (§1) This enzyme method relied on the hydrolytic of acetyl cholinethioiodide (ATChI) by acetylcholinesterase and butyrylthiocholine iodide (BTchI) by butyrylcholinesterase. As a result of this breakdown, 5-thio-2-nitrobenoate anions formed. […] The absorption was measured with a spectrophotometer, as per the protocols. […] An amount of 0.1 M phosphate buffer (8.0 ± 0.1 pH) solution was prepared, whose final pH was adjusted by using the KOH solution.
# (§2) In this assay, 50 µL enzyme solution and 50 µL DTNB reagent were added to 1 mL test samples in a cuvette and then incubated at 30 °C for 15 min. Afterward, a 50 µL substrate solution was added to the mixture.
# [4] = target: T2, butyrylcholinesterase (BChE) (Equus caballus, UniProt P81908); assay: Anticholinesterase assay (Ellman's), BChE inhibition; assay type: biochemical, equine
# T2 construct: butyrylcholinesterase (BChE, obtained from equine serum); from tissue; host or cells: equine serum
# T2 sequence (P81908 whole entry): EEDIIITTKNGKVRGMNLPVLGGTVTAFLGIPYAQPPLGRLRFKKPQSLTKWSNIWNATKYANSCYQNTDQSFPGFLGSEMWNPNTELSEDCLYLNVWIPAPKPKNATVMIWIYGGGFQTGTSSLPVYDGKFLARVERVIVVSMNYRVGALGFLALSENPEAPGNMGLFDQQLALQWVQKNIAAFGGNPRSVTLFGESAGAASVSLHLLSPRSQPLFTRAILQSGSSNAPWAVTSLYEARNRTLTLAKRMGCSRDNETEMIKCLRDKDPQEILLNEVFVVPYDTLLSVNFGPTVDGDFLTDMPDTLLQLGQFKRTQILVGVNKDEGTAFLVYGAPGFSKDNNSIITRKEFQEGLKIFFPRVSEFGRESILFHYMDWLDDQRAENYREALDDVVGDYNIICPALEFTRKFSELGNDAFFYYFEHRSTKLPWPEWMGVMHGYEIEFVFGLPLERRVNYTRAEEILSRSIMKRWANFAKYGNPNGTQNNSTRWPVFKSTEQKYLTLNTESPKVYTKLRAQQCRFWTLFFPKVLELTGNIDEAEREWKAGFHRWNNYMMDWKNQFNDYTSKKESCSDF
# Description: as §1, §2
# human recombinant 5-LOX = target: T3, human recombinant 5-LOX (Homo sapiens, UniProt P09917); assay: biochemical
# T3 sequence (P09917 1-674): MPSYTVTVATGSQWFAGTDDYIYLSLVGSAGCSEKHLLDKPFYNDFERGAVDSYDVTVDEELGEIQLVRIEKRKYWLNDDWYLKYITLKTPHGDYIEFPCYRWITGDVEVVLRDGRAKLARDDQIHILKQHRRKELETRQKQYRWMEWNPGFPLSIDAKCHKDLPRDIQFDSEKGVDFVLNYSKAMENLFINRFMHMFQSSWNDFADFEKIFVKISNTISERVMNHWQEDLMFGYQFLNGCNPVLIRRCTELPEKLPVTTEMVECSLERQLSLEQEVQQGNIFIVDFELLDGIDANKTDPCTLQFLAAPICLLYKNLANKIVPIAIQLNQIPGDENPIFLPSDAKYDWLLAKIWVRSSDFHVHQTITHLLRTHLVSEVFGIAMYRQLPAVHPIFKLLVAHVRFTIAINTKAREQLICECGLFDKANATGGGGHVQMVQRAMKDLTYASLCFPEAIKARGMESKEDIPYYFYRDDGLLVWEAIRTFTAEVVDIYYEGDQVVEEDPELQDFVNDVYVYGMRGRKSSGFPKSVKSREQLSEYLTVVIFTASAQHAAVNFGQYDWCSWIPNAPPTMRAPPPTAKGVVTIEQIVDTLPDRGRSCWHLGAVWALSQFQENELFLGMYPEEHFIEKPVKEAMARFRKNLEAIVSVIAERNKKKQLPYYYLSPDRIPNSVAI
# Description: The lipoxygenase assay on our test compounds was performed by utilizing human recombinant 5-LOX [65]. […] The enzyme solution with a concentration of 10,000 U/mL was prepared, whereas 80 mM linoleic acid solution was used as a substrate. Solutions were prepared in a phosphate buffer (50 mM) with a pH of 6.3, which was also utilized as the blank. To start, various concentrations of our test samples were dissolved in 0.25 mL of the buffer, to which 0.25 mL enzyme solution was added and incubated at 25 °C for 5 min. Afterward, the substrate solution (0.1 mL) was added to the mixture and shaken well. […] In this assay, the standard drug was montelukast, and using the following formula, the % inhibitions were calculated: % enzyme inhibition=X−X1/X×100 where X = absorbance of the negative control (with no test sample), and X1 = absorbance of the test compound.
# COX-1 = COX-1 (Homo sapiens, UniProt P23219); assay: biochemical; details: read-out: % COX-1 Inhibition
# Chain of COX-1 (P23219 24-599): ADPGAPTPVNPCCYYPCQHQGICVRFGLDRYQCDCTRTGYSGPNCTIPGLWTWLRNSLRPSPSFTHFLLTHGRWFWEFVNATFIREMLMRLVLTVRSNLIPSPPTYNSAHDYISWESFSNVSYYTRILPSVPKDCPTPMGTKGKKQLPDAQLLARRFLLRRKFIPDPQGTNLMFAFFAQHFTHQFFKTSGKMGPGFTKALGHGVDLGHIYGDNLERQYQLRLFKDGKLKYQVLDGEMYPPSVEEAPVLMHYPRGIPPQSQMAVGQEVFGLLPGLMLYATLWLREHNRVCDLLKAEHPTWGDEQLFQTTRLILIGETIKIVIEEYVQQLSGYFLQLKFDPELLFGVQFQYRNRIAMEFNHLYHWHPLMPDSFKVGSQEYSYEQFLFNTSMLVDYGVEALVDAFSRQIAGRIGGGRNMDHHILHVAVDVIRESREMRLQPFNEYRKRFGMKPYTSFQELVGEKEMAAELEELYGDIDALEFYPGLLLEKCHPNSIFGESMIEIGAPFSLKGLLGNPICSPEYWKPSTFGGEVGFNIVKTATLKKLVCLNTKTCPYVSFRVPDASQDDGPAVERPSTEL
# Description: (§3) The Cyclooxygenase enzymes (COX-1 and 2) inhibitory potential of our test compounds was determined according to the previously reported procedure. […] The enzyme solutions with a concentration of 0.7–0.8 μg/10 μL (COX-1) and 300 U/mL (COX-2) were prepared. To start the assay, for enzyme activation, 10 µL enzyme solution (kept in a cool temperature of 4 °C for 5 min) and cofactor containing hematin (50 µL, 1 mM), glutathione (0.9 mM) and TMPD in a Tris-buffer (0.1 M) with a pH 8.0 was added. After that, 60 µL of the enzyme solution was added to 20 µL of the test samples of various concentrations and incubated at room temperature for 5 to 10 min. Then, 20 µL of arachidonic acid (30 mM) was added to start the reaction. The mixture was then again incubated for 15 min at 37 °C, and absorbances were measured at 570 nm with UV-visible spectrophotometer. […] The % enzyme inhibitions were calculated by using the previously reported formula.
# COX-2 = target: T4, COX-2 (Homo sapiens, UniProt P35354); assay: biochemical
# T4 sequence (P35354 18-604): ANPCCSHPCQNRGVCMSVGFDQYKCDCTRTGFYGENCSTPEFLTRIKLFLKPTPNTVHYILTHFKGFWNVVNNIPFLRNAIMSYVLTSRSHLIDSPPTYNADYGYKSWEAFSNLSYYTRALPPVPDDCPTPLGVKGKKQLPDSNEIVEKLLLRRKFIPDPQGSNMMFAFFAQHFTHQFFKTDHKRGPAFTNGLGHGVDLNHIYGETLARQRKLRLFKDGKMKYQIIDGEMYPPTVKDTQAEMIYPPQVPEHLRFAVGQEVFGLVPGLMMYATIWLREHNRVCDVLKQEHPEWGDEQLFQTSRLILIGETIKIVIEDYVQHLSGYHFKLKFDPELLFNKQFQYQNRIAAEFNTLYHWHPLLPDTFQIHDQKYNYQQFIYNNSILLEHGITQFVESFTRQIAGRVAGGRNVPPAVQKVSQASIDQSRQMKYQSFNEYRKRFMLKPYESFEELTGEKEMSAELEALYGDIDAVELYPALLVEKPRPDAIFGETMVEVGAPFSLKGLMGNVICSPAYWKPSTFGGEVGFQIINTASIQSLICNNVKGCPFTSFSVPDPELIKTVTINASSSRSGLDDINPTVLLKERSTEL
# Description: as §3
# [5] = 1000 μg/mL, listed as compound 1
smiles,measurement,setting,value
"O=C1O[C@H]([C@@H](O)CO)C(O)=C1O [AA, Ascorbic acid, reference compound]",ABTS IC50,[1],21.72 µg/mL
same,Percent ABTS Activity (mean ± SEM),[1]; 62.5 μg/mL,53.00 ± 0.57%
same,Percent ABTS Activity (mean ± SEM),[1]; 125 μg/mL,62.50 ± 0.44%
same,Percent ABTS Activity (mean ± SEM),[1]; 250 μg/mL,66.33 ± 0.33%
same,Percent ABTS Activity (mean ± SEM),[1]; 500 μg/mL,74.66 ± 1.20%
same,Percent ABTS Activity (mean ± SEM),[1]; 1000 μg/mL,79.00 ± 0.16%
same,DPPH IC50,[2],11.47 µg/mL
same,Percent DPPH Activity (mean ± SEM),[2]; 62.5 μg/mL,61.30 ± 0.52%
same,Percent DPPH Activity (mean ± SEM),[2]; 125 μg/mL,66.37 ± 0.58%
same,Percent DPPH Activity (mean ± SEM),[2]; 250 μg/mL,72.29 ± 0.43%
same,Percent DPPH Activity (mean ± SEM),[2]; 500 μg/mL,78.58 ± 0.56%
same,Percent DPPH Activity (mean ± SEM),[2]; 1000 μg/mL,84.39 ± 0.60%
"CC(C)C/C=C\C(C)C1CCC2C3CCC4=CC(=O)CCC4(C)C3CCC12C (stereo not shown) [Compound 1, (Z)-10,13-dimethyl-17-(6-methylhept-3-en-2-yl)-1,2,6,7,8,9,10,11,12,13,14,15,16,17-tetradecahydro-3H-cyclopenta[a]phenanthren-3-one]",ABTS IC50,[1],369.86 µg/mL
same,Percent ABTS Activity (mean ± SEM),[1]; 62.5 μg/mL,29.67 ± 0.61 %
same,Percent ABTS Activity (mean ± SEM),[1]; 125 μg/mL,35.69 ± 0.77 %
same,Percent ABTS Activity (mean ± SEM),[1]; 250 μg/mL,43.83 ± 0.56 %
same,Percent ABTS Activity (mean ± SEM),[1]; 500 μg/mL,54.60 ± 0.80 %
same,Percent ABTS Activity (mean ± SEM),[1]; 1000 μg/mL,62.61 ± 0.77 %
same,Percent ABTS Activity (mean ± SEM),[1]; [5],62.61 ± 0.77%
same,DPPH IC50,[2],314.78 µg/mL
same,Percent DPPH Activity (mean ± SEM),[2]; 62.5 μg/mL,31.53 ± 0.71 %
same,Percent DPPH Activity (mean ± SEM),[2]; 125 μg/mL,37.51 ± 0.77 %
same,Percent DPPH Activity (mean ± SEM),[2]; 250 μg/mL,45.75 ± 0.58 %
same,Percent DPPH Activity (mean ± SEM),[2]; 500 μg/mL,56.45 ± 0.49 %
same,Percent DPPH Activity (mean ± SEM),[2]; 1000 μg/mL,64.79 ± 0.62 %
same,Percent DPPH Activity (mean ± SEM),[2]; [5],64.79 ± 0.62%
same,AChE inhibition (%),[3]; 62.5 μg/mL,55.56 ± 0.52 %
same,AChE inhibition (%),[3]; 125 μg/mL,64.78 ± 0.60 %
same,AChE inhibition (%),[3]; 250 μg/mL,71.46 ± 0.53 %
same,AChE inhibition (%),[3]; 500 μg/mL,77.68 ± 0.63 %
same,AChE inhibition (%),[3]; 1000 μg/mL,85.72 ± 0.79 ^ns %
same,IC50,[3]; read-out: AChE IC50 (converted),53 µM
same,IC50,[4],71.5 µM
same,Percent BChE (mean ± SEM),[4]; 62.5 μg/mL,59.81 ± 0.65 %
same,Percent BChE (mean ± SEM),[4]; 125 μg/mL,66.65 ± 0.78 %
same,Percent BChE (mean ± SEM),[4]; 250 μg/mL,75.70 ± 0.62 %
same,Percent BChE (mean ± SEM),[4]; 500 μg/mL,80.76 ± 0.63 %
same,Percent BChE (mean ± SEM),[4]; 1000 μg/mL,84.83 ± 0.62 %
same,IC50,human recombinant 5-LOX,19.3 µM
same,inhibition at 62.5 µg/mL,human recombinant 5-LOX; read-out: % 5-LOX Inhibition,65.68 ± 0.64%
same,inhibition at 125 µg/mL,human recombinant 5-LOX; read-out: % 5-LOX Inhibition,71.42 ± 0.46%
same,inhibition at 250 µg/mL,human recombinant 5-LOX; read-out: % 5-LOX Inhibition,76.53 ± 0.41%
same,inhibition at 500 µg/mL,human recombinant 5-LOX; read-out: % 5-LOX Inhibition,82.45 ± 0.55%
same,inhibition at 1000 µg/mL,human recombinant 5-LOX; read-out: % 5-LOX Inhibition,87.63 ± 0.64%
same,inhibition at 62.5 µg/mL,COX-1,22.4 ± 0.49%
same,inhibition at 125 µg/mL,COX-1,40.6 ± 0.84%
same,inhibition at 250 µg/mL,COX-1,43.5 ± 0.46%
same,inhibition at 500 µg/mL,COX-1,59.56 ± 0.45%
same,inhibition at 1000 µg/mL,COX-1,66.29 ± 0.43%
same,IC50,COX-2,28 µM
same,inhibition at 62.5 µg/mL,COX-2; read-out: % COX-2 Inhibition,61.1 ± 0.7%
same,inhibition at 125 µg/mL,COX-2; read-out: % COX-2 Inhibition,66.4 ± 0.7%
same,inhibition at 250 µg/mL,COX-2; read-out: % COX-2 Inhibition,72.7 ± 0.51%
same,inhibition at 500 µg/mL,COX-2; read-out: % COX-2 Inhibition,78.83 ± 0.73%
same,inhibition at 1000 µg/mL,COX-2; read-out: % COX-2 Inhibition,83.13 ± 0.8%
